Results published in the NIST ThermoML archive (doi:10.1016/j.jct.2016.07.017).
Numbers after ± are expanded uncertainties.

Columns and labels:
[1] = for viscosity / mass density: 101.33 kPa; for viscosity / mass density / surface tension liquid-gas: Liquid; for viscosity: Falling or rolling sphere viscometry; for mass density: Vibrating tube method; for surface tension liquid-gas: Ring tensiometer
[2] = activity coefficient (dimensionless); of the first substance listed, at infinite dilution; xn = mol fraction of the nth substance listed; settings: 101.33 kPa, Liquid, Chromatography, x1 = 0

CC[N+](C)(CC)CCOC.O=S(=O)([N-]S(=O)(=O)C(F)(F)F)C(F)(F)F
[1]
Settings | mass density [kg/m3] | surface tension liquid-gas [mN/m] | viscosity [mPa·s]
288.15 K | 1416.6 ± 1.1 | – | 120.6 ± 4.1
298.15 K | 1407.33 ± 1.1 | 33.6 ± 0.8 | 70.96 ± 1.7
308.15 K | 1398.12 ± 1.1 | 32.6 ± 0.8 | 45.36 ± 1
318.15 K | 1389 ± 1.1 | 32.1 ± 0.7 | 30.96 ± 0.68
328.15 K | 1379.94 ± 1.1 | 31.6 ± 0.7 | 22.23 ± 0.49
338.15 K | 1370.78 ± 1.1 | 31.3 ± 0.7 | 16.58 ± 0.36
348.15 K | 1361.55 ± 1.1 | – | 12.79 ± 0.28
358.15 K | 1352.39 ± 1.1 | – | 10.18 ± 0.22
368.15 K | 1343.38 ± 1.1 | – | 8.19 ± 0.18

Settings | Glass transition temperature [°C]
[1], Glass, DSC | -93.7 ± 0.8

C=CCCCC [hex-1-ene] + CC[N+](C)(CC)CCOC.O=S(=O)([N-]S(=O)(=O)C(F)(F)F)C(F)(F)F
[2]
Settings | activity coefficient
318.15 K | 9.21 ± 0.8
328.15 K | 8.78 ± 0.76
338.15 K | 8.33 ± 0.72
348.15 K | 8.07 ± 0.7
358.15 K | 7.64 ± 0.66

CCCCCC [hexane] + CC[N+](C)(CC)CCOC.O=S(=O)([N-]S(=O)(=O)C(F)(F)F)C(F)(F)F
[2]
Settings | activity coefficient
318.15 K | 18.2 ± 1.6
328.15 K | 16.9 ± 1.5
338.15 K | 15.8 ± 1.4
348.15 K | 14.9 ± 1.3
358.15 K | 14 ± 1.2

CO [methanol] + CC[N+](C)(CC)CCOC.O=S(=O)([N-]S(=O)(=O)C(F)(F)F)C(F)(F)F
[2]
Settings | activity coefficient
318.15 K | 1.33 ± 0.11
328.15 K | 1.26 ± 0.11
338.15 K | 1.15 ± 0.1
348.15 K | 1.09 ± 0.09
358.15 K | 1.01 ± 0.08

CC1CCCCC1 [methylcyclohexane] + CC[N+](C)(CC)CCOC.O=S(=O)([N-]S(=O)(=O)C(F)(F)F)C(F)(F)F
[2]
Settings | activity coefficient
318.15 K | 14.9 ± 1.3
328.15 K | 13.8 ± 1.2
338.15 K | 12.9 ± 1.1
348.15 K | 12 ± 1
358.15 K | 11.2 ± 1

CCCCCCCCC [nonane] + CC[N+](C)(CC)CCOC.O=S(=O)([N-]S(=O)(=O)C(F)(F)F)C(F)(F)F
[2]
Settings | activity coefficient
318.15 K | 55.7 ± 4.8
328.15 K | 50 ± 4.3
338.15 K | 45.3 ± 3.9
348.15 K | 41 ± 3.5
358.15 K | 37.7 ± 3.3

C=CCCCCCC [oct-1-ene] + CC[N+](C)(CC)CCOC.O=S(=O)([N-]S(=O)(=O)C(F)(F)F)C(F)(F)F
[2]
Settings | activity coefficient
318.15 K | 19.6 ± 1.7
328.15 K | 18.3 ± 1.6
338.15 K | 17.1 ± 1.5
348.15 K | 16.2 ± 1.4
358.15 K | 15.2 ± 1.3

CCCCCCCC [octane] + CC[N+](C)(CC)CCOC.O=S(=O)([N-]S(=O)(=O)C(F)(F)F)C(F)(F)F
[2]
Settings | activity coefficient
318.15 K | 38.3 ± 3.3
328.15 K | 34.8 ± 3
338.15 K | 31.9 ± 2.8
348.15 K | 29.5 ± 2.6
358.15 K | 27 ± 2.3

CCCC(C)=O [pentan-2-one] + CC[N+](C)(CC)CCOC.O=S(=O)([N-]S(=O)(=O)C(F)(F)F)C(F)(F)F
[2]
Settings | activity coefficient
318.15 K | 0.853 ± 0.071
328.15 K | 0.862 ± 0.072
338.15 K | 0.87 ± 0.072
348.15 K | 0.884 ± 0.073
358.15 K | 0.896 ± 0.074

CCC(=O)CC [pentan-3-one] + CC[N+](C)(CC)CCOC.O=S(=O)([N-]S(=O)(=O)C(F)(F)F)C(F)(F)F
[2]
Settings | activity coefficient
318.15 K | 0.852 ± 0.071
328.15 K | 0.873 ± 0.072
338.15 K | 0.889 ± 0.074
348.15 K | 0.906 ± 0.075
358.15 K | 0.916 ± 0.076

CCCO [propan-1-ol] + CC[N+](C)(CC)CCOC.O=S(=O)([N-]S(=O)(=O)C(F)(F)F)C(F)(F)F
[2]
Settings | activity coefficient
318.15 K | 2.26 ± 0.19
328.15 K | 2.04 ± 0.18
338.15 K | 1.87 ± 0.16
348.15 K | 1.72 ± 0.15
358.15 K | 1.59 ± 0.13

CC(C)O [propan-2-ol] + CC[N+](C)(CC)CCOC.O=S(=O)([N-]S(=O)(=O)C(F)(F)F)C(F)(F)F
[2]
Settings | activity coefficient
318.15 K | 2.04 ± 0.18
328.15 K | 1.84 ± 0.16
338.15 K | 1.7 ± 0.14
348.15 K | 1.56 ± 0.13
358.15 K | 1.44 ± 0.12

c1ccncc1 [pyridine] + CC[N+](C)(CC)CCOC.O=S(=O)([N-]S(=O)(=O)C(F)(F)F)C(F)(F)F
[2]
Settings | activity coefficient
318.15 K | 0.6 ± 0.053
328.15 K | 0.604 ± 0.053
338.15 K | 0.607 ± 0.053
348.15 K | 0.615 ± 0.054
358.15 K | 0.619 ± 0.054

C=Cc1ccccc1 [styrene] + CC[N+](C)(CC)CCOC.O=S(=O)([N-]S(=O)(=O)C(F)(F)F)C(F)(F)F
[2]
Settings | activity coefficient
318.15 K | 1.3 ± 0.11
328.15 K | 1.3 ± 0.11
338.15 K | 1.31 ± 0.11
348.15 K | 1.34 ± 0.11
358.15 K | 1.36 ± 0.11

C1CCOC1 [tetrahydrofuran] + CC[N+](C)(CC)CCOC.O=S(=O)([N-]S(=O)(=O)C(F)(F)F)C(F)(F)F
[2]
Settings | activity coefficient
318.15 K | 0.817 ± 0.068
328.15 K | 0.83 ± 0.069
338.15 K | 0.845 ± 0.07
348.15 K | 0.862 ± 0.072
358.15 K | 0.867 ± 0.072

c1ccsc1 [thiophene] + CC[N+](C)(CC)CCOC.O=S(=O)([N-]S(=O)(=O)C(F)(F)F)C(F)(F)F
[2]
Settings | activity coefficient
318.15 K | 0.906 ± 0.075
328.15 K | 0.912 ± 0.075
338.15 K | 0.925 ± 0.076
348.15 K | 0.937 ± 0.077
358.15 K | 0.94 ± 0.077

Cc1ccccc1 [toluene] + CC[N+](C)(CC)CCOC.O=S(=O)([N-]S(=O)(=O)C(F)(F)F)C(F)(F)F
[2]
Settings | activity coefficient
318.15 K | 1.47 ± 0.12
328.15 K | 1.48 ± 0.13
338.15 K | 1.5 ± 0.13
348.15 K | 1.52 ± 0.13
358.15 K | 1.53 ± 0.13

O [water] + CC[N+](C)(CC)CCOC.O=S(=O)([N-]S(=O)(=O)C(F)(F)F)C(F)(F)F
[2]
Settings | activity coefficient
318.15 K | 1.9 ± 0.16
328.15 K | 1.73 ± 0.15
338.15 K | 1.6 ± 0.14
348.15 K | 1.46 ± 0.12
358.15 K | 1.32 ± 0.11
